The source made the active and inactive calls. No cut-off for these calls is given here.

Consider eight compounds from ChEMBL document CHEMBL1132094, “Human telomerase inhibition by substituted acridine derivatives” (Bioorg Med Chem Lett, 1999).

Telomerase reverse transcriptase, sequence (O14746 whole entry): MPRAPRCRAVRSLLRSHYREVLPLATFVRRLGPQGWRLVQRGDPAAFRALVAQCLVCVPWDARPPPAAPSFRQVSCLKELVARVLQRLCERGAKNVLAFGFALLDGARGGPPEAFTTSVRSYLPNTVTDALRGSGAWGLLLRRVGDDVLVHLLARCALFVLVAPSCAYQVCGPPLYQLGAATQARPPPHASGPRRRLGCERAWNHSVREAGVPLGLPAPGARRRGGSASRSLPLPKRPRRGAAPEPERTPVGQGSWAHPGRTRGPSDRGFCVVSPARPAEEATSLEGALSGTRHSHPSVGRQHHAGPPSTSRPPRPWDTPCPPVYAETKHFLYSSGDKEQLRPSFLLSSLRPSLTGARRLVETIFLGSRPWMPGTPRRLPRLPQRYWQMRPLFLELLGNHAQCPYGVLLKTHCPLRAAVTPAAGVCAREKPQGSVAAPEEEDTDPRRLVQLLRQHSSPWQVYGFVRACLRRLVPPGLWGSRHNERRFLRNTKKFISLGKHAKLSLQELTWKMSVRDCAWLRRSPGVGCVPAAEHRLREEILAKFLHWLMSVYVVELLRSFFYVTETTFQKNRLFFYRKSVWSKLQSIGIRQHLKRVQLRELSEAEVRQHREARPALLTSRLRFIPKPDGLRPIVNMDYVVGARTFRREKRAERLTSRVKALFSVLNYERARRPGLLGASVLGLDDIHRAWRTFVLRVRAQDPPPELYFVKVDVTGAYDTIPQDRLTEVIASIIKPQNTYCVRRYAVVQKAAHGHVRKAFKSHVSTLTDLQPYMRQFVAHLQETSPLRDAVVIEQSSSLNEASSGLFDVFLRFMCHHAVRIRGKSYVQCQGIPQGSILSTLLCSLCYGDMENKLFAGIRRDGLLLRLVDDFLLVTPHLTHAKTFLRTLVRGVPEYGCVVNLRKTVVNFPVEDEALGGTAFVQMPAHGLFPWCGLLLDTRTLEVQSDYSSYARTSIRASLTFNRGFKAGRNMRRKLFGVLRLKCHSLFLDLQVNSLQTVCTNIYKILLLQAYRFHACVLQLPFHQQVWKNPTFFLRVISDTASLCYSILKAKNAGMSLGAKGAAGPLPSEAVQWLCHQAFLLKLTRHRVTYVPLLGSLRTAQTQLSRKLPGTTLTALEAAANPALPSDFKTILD

For one assay, the system named is A2780. Description: In vitro cytotoxicity against human ovarian carcinoma cell line A2780 using sulforhodamine B (SRB) assay. In kind it is functional, cell-based. Background: Sulforhodamine B stains cellular protein and so reports cell mass.
In turn, `CC1(C)CC2CC(C)(CN2CCC(=O)Nc2ccc3cc4ccc(NC(=O)CCN5CC6(C)CC5CC(C)(C)C6)cc4nc3c2)C1` came in with a half-maximal inhibitory concentration (IC50) of 0.5 µM.
Compound `CCC1CCCCN1CCC(=O)Nc1ccc2cc3ccc(NC(=O)CCN4CCCCC4CC)cc3nc2c1` (stereo unspecified) gave a 50% inhibitory concentration (IC50) of 2.2 µM.
The same measure, in the same setting: the figure for `CC1CCCN(CCC(=O)Nc2ccc3cc4ccc(NC(=O)CCN5CCCC(C)C5)cc4nc3c2)C1` (stereo unspecified) is 2.1 µM; for `CCN(CC)CCC(=O)Nc1ccc2cc3ccc(NC(=O)CCN(CC)CC)cc3nc2c1` it is 0.57 µM; for `O=C(CCN1CCCCC1)Nc1ccc2cc3ccc(NC(=O)CCN4CCCCC4)cc3nc2c1` it is 1.7 µM.
`O=C(CCN1CCCCCC1)Nc1ccc2cc3ccc(NC(=O)CCN4CCCCCC4)cc3nc2c1` gave an IC50 of 1.1 µM.
Still for that read-out and setting: the figure for `CC1CCN(CCC(=O)Nc2ccc3cc4ccc(NC(=O)CCN5CCC(C)CC5)cc4nc3c2)CC1` is 2.15 µM; for `CN(C)CCC(=O)Nc1ccc2cc3ccc(NC(=O)CCN(C)C)cc3nc2c1` it is 0.75 µM.

The subject of the next assay is CH1. Description: In vitro cytotoxicity against human ovarian carcinoma cell line CH1 using sulforhodamine B (SRB) assay. The format is functional, cell-based.
In turn, `CC1(C)CC2CC(C)(CN2CCC(=O)Nc2ccc3cc4ccc(NC(=O)CCN5CC6(C)CC5CC(C)(C)C6)cc4nc3c2)C1` came in with an IC50 of 0.54 µM.
On the same count and under the same terms, to `CCC1CCCCN1CCC(=O)Nc1ccc2cc3ccc(NC(=O)CCN4CCCCC4CC)cc3nc2c1` (stereo unspecified) belongs 2.2 µM; to `CC1CCCN(CCC(=O)Nc2ccc3cc4ccc(NC(=O)CCN5CCCC(C)C5)cc4nc3c2)C1` (stereo unspecified), 2.2 µM; to `CCN(CC)CCC(=O)Nc1ccc2cc3ccc(NC(=O)CCN(CC)CC)cc3nc2c1`, 2.45 µM.
Consider `O=C(CCN1CCCCC1)Nc1ccc2cc3ccc(NC(=O)CCN4CCCCC4)cc3nc2c1`, for which the IC50 is 2.25 µM.
Still for that read-out and setting: to `O=C(CCN1CCCCCC1)Nc1ccc2cc3ccc(NC(=O)CCN4CCCCCC4)cc3nc2c1` belongs 1.85 µM; to `CC1CCN(CCC(=O)Nc2ccc3cc4ccc(NC(=O)CCN5CCC(C)CC5)cc4nc3c2)CC1`, 2.05 µM.
Same read-out and setting: to `CN(C)CCC(=O)Nc1ccc2cc3ccc(NC(=O)CCN(C)C)cc3nc2c1` belongs 9.8 µM.

The next assay deals with DNA polymerase I, thermostable (Thermus aquaticus) (UniProt P19821). Description: Ability to inhibit Taq polymerase in vitro at a concentration of 10 uM; NI means No inhibition.
DNA polymerase I, thermostable (Thermus aquaticus), sequence (P19821 whole entry): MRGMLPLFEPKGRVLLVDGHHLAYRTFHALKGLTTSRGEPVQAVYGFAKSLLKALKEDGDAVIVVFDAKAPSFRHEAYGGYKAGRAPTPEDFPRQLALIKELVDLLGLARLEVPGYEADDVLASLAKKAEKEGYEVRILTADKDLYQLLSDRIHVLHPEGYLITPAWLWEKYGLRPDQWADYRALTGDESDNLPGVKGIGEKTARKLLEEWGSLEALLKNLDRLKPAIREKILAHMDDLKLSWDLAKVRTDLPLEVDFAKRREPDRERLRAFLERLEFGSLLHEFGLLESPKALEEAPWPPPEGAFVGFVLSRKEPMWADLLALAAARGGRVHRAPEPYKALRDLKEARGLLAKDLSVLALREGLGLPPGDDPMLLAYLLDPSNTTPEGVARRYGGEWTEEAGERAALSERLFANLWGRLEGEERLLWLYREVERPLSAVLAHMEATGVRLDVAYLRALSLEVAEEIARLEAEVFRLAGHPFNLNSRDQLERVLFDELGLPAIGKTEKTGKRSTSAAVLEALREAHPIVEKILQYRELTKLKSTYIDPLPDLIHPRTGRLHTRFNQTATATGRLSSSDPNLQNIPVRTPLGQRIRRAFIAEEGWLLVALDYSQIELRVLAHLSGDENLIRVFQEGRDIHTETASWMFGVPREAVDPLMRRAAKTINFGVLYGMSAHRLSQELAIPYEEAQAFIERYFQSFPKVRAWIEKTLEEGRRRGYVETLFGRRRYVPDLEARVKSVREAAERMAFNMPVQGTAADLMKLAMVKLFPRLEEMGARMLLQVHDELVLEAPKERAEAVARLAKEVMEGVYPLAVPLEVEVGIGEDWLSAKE
For `CC1(C)CC2CC(C)(CN2CCC(=O)Nc2ccc3cc4ccc(NC(=O)CCN5CC6(C)CC5CC(C)(C)C6)cc4nc3c2)C1`, the inhibition result is “inactive”.
For `CCC1CCCCN1CCC(=O)Nc1ccc2cc3ccc(NC(=O)CCN4CCCCC4CC)cc3nc2c1` (stereo unspecified), the inhibition entry is “inactive”.
Still for that read-out and setting: the entry for `CC1CCCN(CCC(=O)Nc2ccc3cc4ccc(NC(=O)CCN5CCCC(C)C5)cc4nc3c2)C1` (stereo unspecified) is “inactive”.
The same measure, in the same setting: the entry for `CCN(CC)CCC(=O)Nc1ccc2cc3ccc(NC(=O)CCN(CC)CC)cc3nc2c1` is “inactive”.
The same measure, in the same setting: the entry for `O=C(CCN1CCCCC1)Nc1ccc2cc3ccc(NC(=O)CCN4CCCCC4)cc3nc2c1` is “inactive”; for `O=C(CCN1CCCCCC1)Nc1ccc2cc3ccc(NC(=O)CCN4CCCCCC4)cc3nc2c1` it is “inactive”; for `CC1CCN(CCC(=O)Nc2ccc3cc4ccc(NC(=O)CCN5CCC(C)CC5)cc4nc3c2)CC1` it is “inactive”.
Turning to `CN(C)CCC(=O)Nc1ccc2cc3ccc(NC(=O)CCN(C)C)cc3nc2c1`, the inhibition result is “inactive”.

The next assay shares this target. Description: Ability to inhibit Taq polymerase in vitro at a concentration of 20 uM; NI means No inhibition.
For `CC1(C)CC2CC(C)(CN2CCC(=O)Nc2ccc3cc4ccc(NC(=O)CCN5CC6(C)CC5CC(C)(C)C6)cc4nc3c2)C1`, the inhibition result was “inactive”.
Same read-out and setting: to `CCC1CCCCN1CCC(=O)Nc1ccc2cc3ccc(NC(=O)CCN4CCCCC4CC)cc3nc2c1` (stereo unspecified) belongs “inactive”; to `CC1CCCN(CCC(=O)Nc2ccc3cc4ccc(NC(=O)CCN5CCCC(C)C5)cc4nc3c2)C1` (stereo unspecified), “inactive”.
`CCN(CC)CCC(=O)Nc1ccc2cc3ccc(NC(=O)CCN(CC)CC)cc3nc2c1`: the inhibition entry is “inactive”.
On the same count and under the same terms, the entry for `O=C(CCN1CCCCC1)Nc1ccc2cc3ccc(NC(=O)CCN4CCCCC4)cc3nc2c1` is “inactive”; for `O=C(CCN1CCCCCC1)Nc1ccc2cc3ccc(NC(=O)CCN4CCCCCC4)cc3nc2c1` it is “inactive”.
On to `CC1CCN(CCC(=O)Nc2ccc3cc4ccc(NC(=O)CCN5CCC(C)CC5)cc4nc3c2)CC1`, for which the inhibition entry was “inactive”.
The same measure, in the same setting: to `CN(C)CCC(=O)Nc1ccc2cc3ccc(NC(=O)CCN(C)C)cc3nc2c1` belongs “inactive”.

For a further assay the target is unchanged. Put plainly: Ability to inhibit Taq polymerase in vitro at a concentration of 50 uM; NI means No inhibition.
As for `CC1(C)CC2CC(C)(CN2CCC(=O)Nc2ccc3cc4ccc(NC(=O)CCN5CC6(C)CC5CC(C)(C)C6)cc4nc3c2)C1`, the inhibition result is “inactive”.
Still for that read-out and setting: the entry for `CCC1CCCCN1CCC(=O)Nc1ccc2cc3ccc(NC(=O)CCN4CCCCC4CC)cc3nc2c1` (stereo unspecified) is “inactive”; for `CC1CCCN(CCC(=O)Nc2ccc3cc4ccc(NC(=O)CCN5CCCC(C)C5)cc4nc3c2)C1` (stereo unspecified) it is “inactive”.
Still for that read-out and setting: to `CCN(CC)CCC(=O)Nc1ccc2cc3ccc(NC(=O)CCN(CC)CC)cc3nc2c1` belongs “inactive”; to `O=C(CCN1CCCCC1)Nc1ccc2cc3ccc(NC(=O)CCN4CCCCC4)cc3nc2c1`, “inactive”; to `O=C(CCN1CCCCCC1)Nc1ccc2cc3ccc(NC(=O)CCN4CCCCCC4)cc3nc2c1`, “inactive”.
On the same count and under the same terms, the entry for `CC1CCN(CCC(=O)Nc2ccc3cc4ccc(NC(=O)CCN5CCC(C)CC5)cc4nc3c2)CC1` is “inactive”.
On to `CN(C)CCC(=O)Nc1ccc2cc3ccc(NC(=O)CCN(C)C)cc3nc2c1`, for which the inhibition result is “inactive”.

The next assay concerns the target Telomerase reverse transcriptase (Homo sapiens, UniProt O14746). Description: Ability to inhibit human telomerase in a modified cell-free TRAP assay using extracts from A2780 cell line.
Compound `CC1(C)CC2CC(C)(CN2CCC(=O)Nc2ccc3cc4ccc(NC(=O)CCN5CC6(C)CC5CC(C)(C)C6)cc4nc3c2)C1` registered an IC50 of over 50 µM.
Still for that read-out and setting: to `CCC1CCCCN1CCC(=O)Nc1ccc2cc3ccc(NC(=O)CCN4CCCCC4CC)cc3nc2c1` (stereo unspecified) belongs 2.7 µM; to `CC1CCCN(CCC(=O)Nc2ccc3cc4ccc(NC(=O)CCN5CCCC(C)C5)cc4nc3c2)C1` (stereo unspecified), 4.4 µM; to `CCN(CC)CCC(=O)Nc1ccc2cc3ccc(NC(=O)CCN(CC)CC)cc3nc2c1`, 5.8 µM.
Regarding `O=C(CCN1CCCCC1)Nc1ccc2cc3ccc(NC(=O)CCN4CCCCC4)cc3nc2c1`, inhibition was half-maximal at 2.8 µM (IC50).
On the same count and under the same terms, the figure for `O=C(CCN1CCCCCC1)Nc1ccc2cc3ccc(NC(=O)CCN4CCCCCC4)cc3nc2c1` is 3.1 µM; for `CC1CCN(CCC(=O)Nc2ccc3cc4ccc(NC(=O)CCN5CCC(C)CC5)cc4nc3c2)CC1` it is 1.35 µM.
Same read-out and setting: to `CN(C)CCC(=O)Nc1ccc2cc3ccc(NC(=O)CCN(C)C)cc3nc2c1` belongs 8.2 µM.

The next assay deals with SK-OV-3. Description: In vitro cytotoxicity against human ovarian carcinoma cell line SKOV-3 using sulforhodamine B (SRB) assay. In kind it is functional, cell-based.
The compound `CC1(C)CC2CC(C)(CN2CCC(=O)Nc2ccc3cc4ccc(NC(=O)CCN5CC6(C)CC5CC(C)(C)C6)cc4nc3c2)C1` gave an IC50 of 2.2 µM.
The same measure, in the same setting: to `CCC1CCCCN1CCC(=O)Nc1ccc2cc3ccc(NC(=O)CCN4CCCCC4CC)cc3nc2c1` (stereo unspecified) belongs 3.9 µM.
The same measure, in the same setting: the figure for `CC1CCCN(CCC(=O)Nc2ccc3cc4ccc(NC(=O)CCN5CCCC(C)C5)cc4nc3c2)C1` (stereo unspecified) is 2.85 µM; for `CCN(CC)CCC(=O)Nc1ccc2cc3ccc(NC(=O)CCN(CC)CC)cc3nc2c1` it is 2.25 µM.
On the same count and under the same terms, the figure for `O=C(CCN1CCCCC1)Nc1ccc2cc3ccc(NC(=O)CCN4CCCCC4)cc3nc2c1` is 0.54 µM.
As to `O=C(CCN1CCCCCC1)Nc1ccc2cc3ccc(NC(=O)CCN4CCCCCC4)cc3nc2c1`, inhibition was half-maximal at 2.5 µM (IC50).
On the same count and under the same terms, to `CC1CCN(CCC(=O)Nc2ccc3cc4ccc(NC(=O)CCN5CCC(C)CC5)cc4nc3c2)CC1` belongs 2.4 µM.
Same read-out and setting: the figure for `CN(C)CCC(=O)Nc1ccc2cc3ccc(NC(=O)CCN(C)C)cc3nc2c1` is 2.5 µM.

Broadly, the IC50 is the concentration that gives 50% inhibition.
